Source: patent US7332612B2 (Teva Pharmaceutical Industries Ltd., priority 2001, dated 2008)

Description: To obtain Form II in high chemical purity the starting material should also be chemically pure.

## CCCCc1nc(Cl)c(CO)n1Cc1ccc(-c2ccccc2-c2nnn[nH]2)cc1.[K] [losartan potassium]
methanol, complete dissolution at room temperature
  solubility in methanol: highly soluble
xylene, either crystalline or amorphous
  solubility in xylene: low solubility
